Data on two molecules can be found in patent USRE50642E1, “Anti-androgens for the treatment of non-metastatic castrate-resistant prostate cancer” (Aragon Pharmaceuticals, Inc., priority 2012, dated 2025).

For experiment [1], the system named is male humans with non-metastatic castration-resistant prostate cancer. Put plainly: Phase II clinical trial in non-metastatic castration-resistant prostate cancer, PSA decline from baseline. The experiment is classed as in vivo, human. The conditions noted are these: 240 mg orally, continuous daily dosing schedule.
The test system of experiment [2] is non-castrate hormone-sensitive and bicalutamide-resistant human prostate cancer xenograft models. The conditions noted are these: non-castrate hormone-sensitive and bicalutamide-resistant xenografts; Clegg et al. Cancer Res 2012; cited from earlier work.
The target of experiment [3] is T1, T877A AR mutant (Homo sapiens, UniProt P10275, T878A).
T1 sequence (P10275 1-920 T878A): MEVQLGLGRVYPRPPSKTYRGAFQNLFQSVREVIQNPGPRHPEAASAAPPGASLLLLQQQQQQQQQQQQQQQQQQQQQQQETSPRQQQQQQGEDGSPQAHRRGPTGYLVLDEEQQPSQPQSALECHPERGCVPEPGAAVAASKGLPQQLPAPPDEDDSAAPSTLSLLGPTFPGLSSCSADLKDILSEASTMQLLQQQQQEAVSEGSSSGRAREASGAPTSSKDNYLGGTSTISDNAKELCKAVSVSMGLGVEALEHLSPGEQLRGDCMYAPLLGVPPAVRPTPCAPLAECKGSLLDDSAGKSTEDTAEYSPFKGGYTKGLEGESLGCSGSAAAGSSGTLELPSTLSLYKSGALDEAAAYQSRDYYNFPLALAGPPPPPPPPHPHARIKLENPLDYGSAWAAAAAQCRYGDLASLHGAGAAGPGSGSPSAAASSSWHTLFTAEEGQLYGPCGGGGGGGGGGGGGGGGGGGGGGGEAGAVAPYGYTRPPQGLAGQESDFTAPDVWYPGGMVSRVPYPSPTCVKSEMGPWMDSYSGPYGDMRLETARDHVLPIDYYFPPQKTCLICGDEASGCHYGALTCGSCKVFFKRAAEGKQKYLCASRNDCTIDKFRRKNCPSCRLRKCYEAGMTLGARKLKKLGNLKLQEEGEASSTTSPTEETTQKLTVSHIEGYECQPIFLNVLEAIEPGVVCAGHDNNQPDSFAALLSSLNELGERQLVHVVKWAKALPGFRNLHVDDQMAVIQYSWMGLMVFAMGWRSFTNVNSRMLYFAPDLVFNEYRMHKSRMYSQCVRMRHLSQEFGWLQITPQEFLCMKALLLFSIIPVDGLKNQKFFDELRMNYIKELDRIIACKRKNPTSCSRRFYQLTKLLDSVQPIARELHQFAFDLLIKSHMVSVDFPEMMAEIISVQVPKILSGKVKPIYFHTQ
The settings on record: cited from earlier work.

`CNC(=O)c1ccc(N2C(=S)N(c3cnc(C#N)c(C(F)(F)F)c3)C(=O)C23CCC3)cc1F` [4-[7-(6-cyano-5-trifluoromethylpyridin-3-yl)-8-oxo-6-thioxo-5,7-diazaspiro[3.4]oct-5-yl]-2-fluoro-N-methylbenzamide]: in experiment [1] (at 3 months), the “PSA50 (≥50% decline in PSA from baseline), share of males” value was found to be 91% and the “PSA90 (≥90% decline in PSA from baseline), share of males” value came out at 38%. In addition, in experiment [1] (at 6 months), the “PSA50 (≥50% decline in PSA from baseline), share of males” value is recorded as 91% and the “PSA90 (≥90% decline in PSA from baseline), share of males” value is listed as 55%. Besides, the tumor regression result in experiment [2] was “partial or complete tumor regression”.

`CC(C)(O)C(=O)Nc1ccc([N+](=O)[O-])c(C(F)(F)F)c1` [hydroxyflutamide]: the “activity in T877A AR mutant” value in experiment [3] is on record as “act as AR agonists”.
